Values belong to the compound of their own block, whether it stands above or below them.
What was measured:
[1] = test system: arthritic pain model in rat; experiment: PIFIR model: uric acid-induced arthritic pain model in rat, antinociceptive activity; conditions: oral; for DE50: dose causing 50% of maximum possible effect, drug alone
Method: An arthritic pain model in rat was determined for said purpose. Data were interpreted by a Surface Synergistic Interaction analysis (ISS) and an isobolographic analysis to determine the interaction nature. ISS was calculated from the total antinociceptive effect produced by the combination after subtracting the antinociceptive effect produced by drug separately.
For this study Wistar female rats were used [Crl (WI) BR] weighing between 180 to 200 gr. […] Number of animals in experiment was kept minimal and animals were kept in a room with climate and light control with a 12-hour light/dark cycle.
At the completion of study rats were sacrificed.
Animals were anesthesized with ether in a chamber (Pyrex glass dryer with ether vapor). Nociception was induced through a 0.05 mL uric acid intraarticular (ia) injection suspended in mineral oil in knee joint from right back leg. The suspension was prepared by milling 3.0 g. of uric acid with 10 mL of mineral oil in a glass mortar with pestle (Pyrex). Intraarticular injection was carried out through patellar ligament using a 1 mL glass syringe (Beckton Dickinson LTA, Brazil) with a 5 mm 24-gauge needle. An electrode was implanted immediately after to the plantar surface of each back claw between plantar pads. […] Contact time between each electrode from rat limb and cylinder was registered. […] This time was determined as zero time for measuring antinociceptive effects; these effects were measured every 30 minutes during the following 4 hours. This allowed determining the time course for antinociceptive effects in the same animal. Antinociception was considered as a recovery of contact time. Data are expressed as Functionality percentage index (IF%, that is, contact time on injected leg by the contact time in left leg, control, multiplied by 100). For the purpose of this study, nociception induction in experimental animals was unavoidable. However, care was taken to prevent an unnecessary suffering. All experiments were performed between 7:00 am and 2:00 pm.
Study data, tables and figures are expressed as IF%. Curves for IF% vs time were prepared for each treatment and the corresponding course time was obtained. Antinociception was estimated as a recovery of IF%. Accumulated antinociceptive effect during the whole observation period (4 hours) was determined as the area below the curve (ABC) from time course to obtain a dose-response curve and for analyzing the total antinociceptive effect obtained by analgesic agent whether alone or in combination.
ABC was calculated for each drug combination and for each of the components. […] If the […] ABC was higher than the theoretical sum, the result was considered enhancement; when it was similar to the theoretical sum then was determined to show additive antinociceptive effects. […] All values for each treatment are average ± S. E. M., for six animals. ABC values for drug combinations were compared with expected values using the Student test.
Doses which caused 50% of maximum possible effect (DE50) of each drug were calculated by performing a linear regression analysis of the linear portion from dose-response curves. The isobologram was prepared by using the DE50 when drugs were delivered alone or in combination. […] DE50 value from combination total dose was calculated from the dose-response curve of combined drugs. Statistical significance between additive theoretical point and DE50 experimental value was validated by using the Student test.

[2] = cited from earlier work
[3] = test system: patients with Gouty arthritis; experiment: Clinical study (Phase I): combination of Allopurinol/Meloxicam vs independent delivery, 52 weeks follow-up; assay type: in vivo; conditions: for Uric Acid Average, baseline / Uric Acid Average, at the end of study: Allopurinol 300 mg per day, Meloxicam 15 mg per day, or combination 300 mg/15 mg, n=50 per group; for Uric Acid Average, at the end of study: end of study (52 weeks)
Method: A clinical study was carried out assessing the efficacy of a combination of Allopurinol/Meloxicam vs independent delivery of Allopurinol and Meloxicam in patients with Gouty arthritis.
There were 150 patients with gout and with uric acid levels at least of 8 mg/dL randomly selected for this study.
Main validation criterion was uric acid concentration of 6 mg/dL, in the last 3 monthly determinations. Secondary validation criteria included a reduction of incidence in gout worsening events.

plasma proteins = conditions: cited from earlier work

walking capability of treated rats ([1]; Meloxicam 0.18-5.62 mg/kg, Allopurinol 3.16-56.23 mg/kg): did not affect the walking capability
Compound: Oc1ncnc2[nH]ncc12 [Allopurinol]
ABC ([1]; Allopurinol 10.0 mg/kg alone, 4 hours): 22.5 ± 9.3 au | ABC ([1]; Allopurinol 17.78 mg/kg alone, 4 hours): 58.2 ± 23.7 au | antinociceptive efficacy (ABC) ([1]; Allopurinol 56.23 mg/kg, 4 hours): 207.7 ± 24.7 au | side effects in animals ([1]; Allopurinol at 100 mg/kg): did not cause side effects | DE50 [1]: 44.29 ± 0.06 mg/kg | ingested drug excreted in stools ([2]; in vivo): About 20% | global incidence of acute events ([3]; along 9 to 52 weeks, comparison between groups): similar | Uric Acid Average, baseline [3]: 9 mg/dL | Uric Acid Average, at the end of study [3]: 7 mg/dL | adverse events reported (gastrointestinal upset) ([3]; number of events per group of 50 patients, 52 weeks): Six

Compound: Cc1cnc(NC(=O)C2=C(O)c3ccccc3S(=O)(=O)N2C)s1 [Meloxicam]
ABC ([1]; Meloxicam 0.32 mg/kg alone, 4 hours): 65.0 ± 9.6 au | ABC ([1]; Meloxicam 0.56 mg/kg alone, 4 hours): 98.7 ± 15.5 au | ABC ([1]; Meloxicam 1.78 mg/kg alone, 4 hours): 279.0 ± 15.5 au | antinociceptive efficacy (ABC) ([1]; Meloxicam 2.16 mg/kg (so in the source), 4 hours): 295.8 ± 14.9 au | antinociceptive effect (ABC) ([1]; Meloxicam 3.16 mg/kg (maximum used dosage), 4 hours): 295.8 ± 14.9 au | DE50 [1]: 0.86 ± 0.10 mg/kg | adherence with plasma proteins (plasma proteins): > 99% | bioavailability ([2]; oral): 89% | Uric Acid Average, baseline [3]: 10 mg/dL | Uric Acid Average, at the end of study [3]: 9 mg/dL

Compound: Cc1ccc(-c2cc(C(F)(F)F)nn2-c2ccc(S(N)(=O)=O)cc2)cc1 [Celecoxib]
time to maximum plasma levels ([2]; after oral dose): about 3 hours | dose recovered in feces ([2]; as metabolites): 57% | dose recovered in urine ([2]; as metabolites): 27% | half-life ([2]; clearance half-life): about 11 hours | Plasmatic clearance ([2]; in vivo): about 500 mL/min | distribution volume ([2]; in vivo): about 400 L
